How the values were obtained:
Assay in all cases: relative viability (nuclei count vs DMSO), 5 days (fraction); higher = more cells survive
[1] = tested on: RERF-LC-KJ
Summary of the method: (§1)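 Relative viability was taken as the ratio of nuclei in treated wells to nuclei in vehicle wells. Lung cancer cell lines in 1536-well plates received compounds by pin tool one day after seeding, either one drug alone or a fixed anchor-drug dose plus five library-drug doses (not always all listed) in √10 steps. Nuclei were counted on 4× images after 5 days of treatment, and values are medians of duplicate plates.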

[2] = tested on: HARA
Summary of the method: as §1

[3] = tested on: SW 1573
Summary of the method: as §1

[4] = tested on: 201T
Summary of the method: as §1

[5] = tested on: HCC-44
Summary of the method: as §1

[6] = tested on: NCI-H1650
Summary of the method: as §1

[7] = tested on: LOU-NH91
Summary of the method: as §1

[8] = tested on: A-427
Summary of the method: as §1

[9] = tested on: NCI-H2023
Summary of the method: as §1

[10] = tested on: HCC-15
Summary of the method: as §1

[11] = tested on: HCC-366
Summary of the method: as §1

[12] = tested on: ChaGo-K-1
Summary of the method: as §1

[13] = tested on: NCI-H441
Summary of the method: as §1

[14] = tested on: NCI-H1993
Summary of the method: as §1

[15] = tested on: NCI-H2126
Summary of the method: as §1

[16] = tested on: COR-L23
Summary of the method: as §1

[17] = tested on: LCLC-97TM1
Summary of the method: as §1

[18] = tested on: NCI-H1734
Summary of the method: as §1

[19] = tested on: LCLC-103H
Summary of the method: as §1

[20] = tested on: NCI-H2009
Summary of the method: as §1

[21] = tested on: NCI-H460
Summary of the method: as §1

[22] = tested on: NCI-H650
Summary of the method: as §1

[23] = tested on: HCC-78
Summary of the method: as §1

## O=C(O)CCCCC(CCSCc1ccccc1)SCc1ccccc1 (centres undefined) [CPI-613] + CC(=O)Nc1cccc(-n2c(=O)n(C3CC3)c(=O)c3c(Nc4ccc(I)cc4F)n(C)c(=O)c(C)c32)c1 [Trametinib] (partner 0.02 µM)
[1]; first compound 5 µM
  relative viability: 0.76
[1]; first compound 15.81 µM
  relative viability: 0.878
[1]; first compound 50 µM
  relative viability: 0.845
[1]; first compound 158.11 µM
  relative viability: 0.458
[1]; first compound 500 µM
  relative viability: 0.44
[2]; first compound 5 µM
  relative viability: 0.805
[2]; first compound 15.81 µM
  relative viability: 0.57
[2]; first compound 50 µM
  relative viability: 0.849
[2]; first compound 158.11 µM
  relative viability: 0.362
[2]; first compound 500 µM
  relative viability: 0.0485
[3]; first compound 5 µM
  relative viability: 0.557
[3]; first compound 15.81 µM
  relative viability: 0.433
[3]; first compound 50 µM
  relative viability: 0.482
[3]; first compound 158.11 µM
  relative viability: 0.133
[3]; first compound 500 µM
  relative viability: 0.0735
[4]; first compound 5 µM
  relative viability: 0.709
[4]; first compound 15.81 µM
  relative viability: 0.701
[4]; first compound 50 µM
  relative viability: 0.668
[4]; first compound 158.11 µM
  relative viability: 0.421
[4]; first compound 500 µM
  relative viability: 0.408
[5]; first compound 5 µM
  relative viability: 1.04
[5]; first compound 15.81 µM
  relative viability: 1.03
[5]; first compound 50 µM
  relative viability: 1.08
[5]; first compound 158.11 µM
  relative viability: 0.649
[5]; first compound 500 µM
  relative viability: 0.62
[6]; first compound 5 µM
  relative viability: 0.546
[6]; first compound 15.81 µM
  relative viability: 0.548
[6]; first compound 50 µM
  relative viability: 0.537
[6]; first compound 158.11 µM
  relative viability: 0.168
[6]; first compound 500 µM
  relative viability: 0.0145
[7]; first compound 5 µM
  relative viability: 0.767
[7]; first compound 15.81 µM
  relative viability: 0.723
[7]; first compound 50 µM
  relative viability: 0.775
[7]; first compound 158.11 µM
  relative viability: 0.775
[7]; first compound 500 µM
  relative viability: 0.674
[8]; first compound 5 µM
  relative viability: 0.716
[8]; first compound 15.81 µM
  relative viability: 0.766
[8]; first compound 50 µM
  relative viability: 0.682
[8]; first compound 158.11 µM
  relative viability: 0.476
[8]; first compound 500 µM
  relative viability: 0.391
[9]; first compound 5 µM
  relative viability: 0.57
[9]; first compound 15.81 µM
  relative viability: 0.605
[9]; first compound 50 µM
  relative viability: 0.499
[9]; first compound 158.11 µM
  relative viability: 0.0445
[9]; first compound 500 µM
  relative viability: 0.0048
[10]; first compound 5 µM
  relative viability: 0.387
[10]; first compound 15.81 µM
  relative viability: 0.363
[10]; first compound 50 µM
  relative viability: 0.363
[10]; first compound 158.11 µM
  relative viability: 0.167
[10]; first compound 500 µM
  relative viability: 0.0261
[11]; first compound 5 µM
  relative viability: 0.367
[11]; first compound 15.81 µM
  relative viability: 0.321
[11]; first compound 50 µM
  relative viability: 0.29
[11]; first compound 158.11 µM
  relative viability: 0.12
[11]; first compound 500 µM
  relative viability: 0.0064
[12]; first compound 5 µM
  relative viability: 0.853
[12]; first compound 15.81 µM
  relative viability: 0.876
[12]; first compound 50 µM
  relative viability: 0.847
[12]; first compound 158.11 µM
  relative viability: 0.29
[12]; first compound 500 µM
  relative viability: 0.391
[13]; first compound 5 µM
  relative viability: 0.426
[13]; first compound 15.81 µM
  relative viability: 0.429
[13]; first compound 50 µM
  relative viability: 0.343
[13]; first compound 158.11 µM
  relative viability: 0.322
[13]; first compound 500 µM
  relative viability: 0.003
[14]; first compound 5 µM
  relative viability: 0.466
[14]; first compound 15.81 µM
  relative viability: 0.456
[14]; first compound 50 µM
  relative viability: 0.528
[14]; first compound 158.11 µM
  relative viability: 0.51
[14]; first compound 500 µM
  relative viability: 0.291
[15]; first compound 5 µM
  relative viability: 0.528
[15]; first compound 15.81 µM
  relative viability: 0.538
[15]; first compound 50 µM
  relative viability: 0.615
[15]; first compound 158.11 µM
  relative viability: 0.232
[15]; first compound 500 µM
  relative viability: 0.193
[16]; first compound 5 µM
  relative viability: 0.651
[16]; first compound 15.81 µM
  relative viability: 0.524
[16]; first compound 50 µM
  relative viability: 0.63
[16]; first compound 158.11 µM
  relative viability: 0.198
[16]; first compound 500 µM
  relative viability: 0.0522
[17]; first compound 5 µM
  relative viability: 0.202
[17]; first compound 15.81 µM
  relative viability: 0.162
[17]; first compound 50 µM
  relative viability: 0.153
[17]; first compound 158.11 µM
  relative viability: 0.0713
[17]; first compound 500 µM
  relative viability: 0.0622
[18]; first compound 5 µM
  relative viability: 0.615
[18]; first compound 15.81 µM
  relative viability: 0.631
[18]; first compound 50 µM
  relative viability: 0.593
[18]; first compound 158.11 µM
  relative viability: 0.482
[18]; first compound 500 µM
  relative viability: 0.101
[19]; first compound 5 µM
  relative viability: 0.67
[19]; first compound 15.81 µM
  relative viability: 0.662
[19]; first compound 50 µM
  relative viability: 0.727
[19]; first compound 158.11 µM
  relative viability: 0.422
[19]; first compound 500 µM
  relative viability: 0.372
[20]; first compound 5 µM
  relative viability: 0.319
[20]; first compound 15.81 µM
  relative viability: 0.257
[20]; first compound 50 µM
  relative viability: 0.302
[20]; first compound 158.11 µM
  relative viability: 0.081
[20]; first compound 500 µM
  relative viability: 0.027
[21]; first compound 5 µM
  relative viability: 0.128
[21]; first compound 15.81 µM
  relative viability: 0.132
[21]; first compound 50 µM
  relative viability: 0.116
[21]; first compound 158.11 µM
  relative viability: 0.0278
[21]; first compound 500 µM
  relative viability: 0.0229
[22]; first compound 5 µM
  relative viability: 0.969
[22]; first compound 15.81 µM
  relative viability: 0.994
[22]; first compound 50 µM
  relative viability: 0.849
[22]; first compound 158.11 µM
  relative viability: 0.929
[22]; first compound 500 µM
  relative viability: 0.889
[23]; first compound 15.81 µM
  relative viability: 0.729
[23]; first compound 50 µM
  relative viability: 0.788
[23]; first compound 158.11 µM
  relative viability: 0.714
[23]; first compound 500 µM
  relative viability: 0.716

— the supplement of paper PMC10307832
